Test results reported in US20250230171A1 (MOMA Therapeutics, Inc., priority 2023, published 2025).

What was measured:
[1] = tested on: DLD1 BRCA2 (−/−) cells; assay: 7-day cell viability assay (CellTiter-Glo), DLD1 BRCA2 (−/−); type: cell-based, human; details: Homo sapiens, DLD-1, 168 h, 7-day CellTiter-Glo, n=2, read-out: Viability IC50 (uM) DLD1 BRCA2 null
Summary of the method: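 7-day growth assay in DLD1 cells with or without BRCA2; seeding densities chosen to keep log-linear growth. Compound: 10 uM top, 3-fold, 9 points. Endpoint: CTG ATP luminescence at RT.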

[2] = tested on: DLD1 WT cells; assay: 7-day cell viability assay (CellTiter-Glo), DLD1 parental (WT); type: cell-based, human; details: Homo sapiens, DLD-1, 168 h, 7-day CellTiter-Glo, n=2

Row | IC50 [1] | SMILES | IC50 [2]
1 | 0.001 to 0.1 µM | Cc1cc(-c2cc(Cl)cnc2OC(F)F)c(C(=O)Nc2nc3c(s2)CN(C(=O)c2ccc(C(F)F)cn2)C3)cn1 [Example 938, 5-chloro-2-(difluoromethoxy)-N-(5-(5-(difluoromethyl)picolinoyl)-5,6-dihydro-4H-pyrrolo[3,4-d]thiazol-2-yl)-6′-methyl-[3,4′-bipyridine]-3′-carboxamide] | ≥ 10 µM
2 | 0.001 to 0.1 µM | COc1cnc(Cl)cc1-c1cc(C)ncc1C(=O)Nc1nc2c(s1)CN(C(=O)c1nc(Cl)c(C(F)F)cc1C)C2 [Example 940, 2′-chloro-N-(5-(6-chloro-5-(difluoromethyl)-3-methylpicolinoyl)-5,6-dihydro-4H-pyrrolo[3,4-d]thiazol-2-yl)-5′-methoxy-6-methyl-[4,4′-bipyridine]-3-carboxamide] | ≥ 10 µM
3 | 0.001 to 0.1 µM | COc1cnc(Cl)cc1-c1cc(C)ncc1C(=O)Nc1nc2c(s1)CN(C(=O)c1ncc(C(F)(F)F)nc1OC)C2 [Example 945, 2′-chloro-5′-methoxy-N-(5-(3-methoxy-5-(trifluoromethyl)pyrazine-2-carbonyl)-5,6-dihydro-4H-pyrrolo[3,4-d]thiazol-2-yl)-6-methyl-[4,4′-bipyridine]-3-carboxamide] | ≥ 10 µM
4 | 0.001 to 0.1 µM | COc1cnc(Cl)cc1-c1cc(C)ncc1C(=O)Nc1nc2c(s1)CN(C(=O)c1ccc(C(F)F)nc1C)C2 [Example 947, 2′-chloro-N-(5-(6-(difluoromethyl)-2-methylnicotinoyl)-5,6-dihydro-4H-pyrrolo[3,4-d]thiazol-2-yl)-5′-methoxy-6-methyl-[4,4′-bipyridine]-3-carboxamide] | ≥ 10 µM
5 | 0.001 to 0.1 µM | COc1cnc(Cl)cc1-c1cc(C)ncc1C(=O)Nc1nc2c(s1)CN(C(=O)c1nccc(C(F)F)c1F)C2 [Example 949, 2′-chloro-N-(5-(4-(difluoromethyl)-3-fluoropicolinoyl)-5,6-dihydro-4H-pyrrolo[3,4-d]thiazol-2-yl)-5′-methoxy-6-methyl-[4,4′-bipyridine]-3-carboxamide] | ≥ 10 µM
6 | 0.001 to 0.1 µM | COc1cnc(Cl)cc1-c1cc(C)ncc1C(=O)Nc1nc2c(s1)CN(C(=O)c1nccc(C(F)(F)F)c1C)C2 [Example 951, 2′-chloro-5′-methoxy-6-methyl-N-(5-(3-methyl-4-(trifluoromethyl)picolinoyl)-5,6-dihydro-4H-pyrrolo[3,4-d]thiazol-2-yl)-[4,4′-bipyridine]-3-carboxamide] | ≥ 10 µM
7 | 0.001 to 0.1 µM | COc1cnc(Cl)cc1-c1cc(C)ncc1C(=O)Nc1nc2c(s1)CN(C(=O)c1nc(C(F)(F)F)ccc1Cl)C2 [Example 952, 2′-chloro-N-(5-(3-chloro-6-(trifluoromethyl)picolinoyl)-5,6-dihydro-4H-pyrrolo[3,4-d]thiazol-2-yl)-5′-methoxy-6-methyl-[4,4′-bipyridine]-3-carboxamide] | ≥ 10 µM
8 | 0.001 to 0.1 µM | COc1cnc(Cl)cc1-c1cc(C)ncc1C(=O)Nc1nc2c(s1)CN(C(=O)C1CCN(CC(F)(F)F)CC1)C2 [Example 959, 2′-chloro-5′-methoxy-6-methyl-N-(5-(1-(2,2,2-trifluoroethyl)piperidine-4-carbonyl)-5,6-dihydro-4H-pyrrolo[3,4-d]thiazol-2-yl)-[4,4′-bipyridine]-3-carboxamide] | ≥ 10 µM
9 | 0.001 to 0.1 µM | COc1cnc(Cl)cc1-c1cc(C)ncc1C(=O)Nc1nc2c(s1)CN(C(=O)c1nccc(C(F)(F)F)c1F)C2 [Example 961, 2′-chloro-N-(S-(3-fluoro-4-(trifluoromethyl)picolinoyl)-5,6-dihydro-4H-pyrrolo[3,4-d]thiazol-2-yl)-5′-methoxy-6-methyl-[4,4′-bipyridine]-3-carboxamide] | ≥ 10 µM
10 | 0.001 to 0.1 µM | COc1cnc(Cl)cc1-c1cc(C)ncc1C(=O)Nc1nc2c(s1)CN(C(=O)c1ccc(C(F)(F)F)c(OC)n1)C2 [Example 962, 2′-chloro-5′-methoxy-N-(5-(6-methoxy-5-(trifluoromethyl)picolinoyl)-5,6-dihydro-4H-pyrrolo[3,4-d]thiazol-2-yl)-6-methyl-[4,4′-bipyridine]-3-carboxamide] | 5 to 10 µM
11 | 0.001 to 0.1 µM | COc1cnc(Cl)cc1-c1cc(C)ncc1C(=O)Nc1nc2c(s1)CN(Cc1ccc(C(F)F)cc1F)C2 [Example 964, 2′-chloro-N-(5-(4-(difluoromethyl)-2-fluorobenzyl)-5,6-dihydro-4H-pyrrolo[3,4-d]thiazol-2-yl)-5′-methoxy-6-methyl-[4,4′-bipyridine]-3-carboxamide] | ≥ 10 µM
12 | 0.001 to 0.1 µM | COc1cnc(Cl)cc1-c1cc(C)ncc1C(=O)Nc1nc2c(s1)CN(C(=O)c1nc(C(F)(F)F)ccc1C)C2 [Example 965, 2′-chloro-5′-methoxy-6-methyl-N-(5-(3-methyl-6-(trifluoromethyl)picolinoyl)-5,6-dihydro-4H-pyrrolo[3,4-d]thiazol-2-yl)-[4,4′-bipyridine]-3-carboxamide] | ≥ 10 µM
13 | 0.001 to 0.1 µM | COc1cnc(Cl)cc1-c1cc(C)ncc1C(=O)Nc1nc2c(s1)CN(C(=O)c1nccc(C(F)F)c1OC)C2 [Example 966, 2′-chloro-N-(5-(4-(difluoromethyl)-3-methoxypicolinoyl)-5,6-dihydro-4H-pyrrolo[3,4-d]thiazol-2-yl)-5′-methoxy-6-methyl-[4,4′-bipyridine]-3-carboxamide] | ≥ 10 µM
14 | 0.001 to 0.1 µM | COc1cnc(Cl)cc1-c1cc(C)ncc1C(=O)Nc1nc2c(s1)CN(C(=O)c1nccc(C(F)(F)F)c1OC)C2 [Example 968, 2′-chloro-5′-methoxy-N-(5-(3-methoxy-4-(trifluoromethyl)picolinoyl)-5,6-dihydro-4H-pyrrolo[3,4-d]thiazol-2-yl)-6-methyl-[4,4′-bipyridine]-3-carboxamide] | ≥ 10 µM
15 | 0.001 to 0.1 µM | CCOc1nc(C(F)(F)F)ccc1C(=O)N1Cc2nc(NC(=O)c3cnc(C)cc3-c3cc(Cl)ncc3OC)sc2C1 [Example 969, 2′-chloro-N-(5-(2-ethoxy-6-(trifluoromethyl)nicotinoyl)-5,6-dihydro-4H-pyrrolo[3,4-d]thiazol-2-yl)-5′-methoxy-6-methyl-[4,4′-bipyridine]-3-carboxamide] | ≥ 10 µM
16 | 0.001 to 0.1 µM | CCc1nc(C(F)(F)F)ccc1C(=O)N1Cc2nc(NC(=O)c3cnc(C)cc3-c3cc(Cl)ncc3OC)sc2C1 [Example 970, 2′-chloro-N-(5-(2-ethyl-6-(trifluoromethyl)nicotinoyl)-5,6-dihydro-4H-pyrrolo[3,4-d]thiazol-2-yl)-5′-methoxy-6-methyl-[4,4′-bipyridine]-3-carboxamide] | ≥ 10 µM
17 | 0.001 to 0.1 µM | COc1cnc(Cl)cc1-c1cc(C)ncc1C(=O)Nc1nc2c(s1)CN(C(=O)c1ncc(C(F)F)nc1OC)C2 [Example 972, 2′-chloro-N-(5-(5-(difluoromethyl)-3-methoxypyrazine-2-carbonyl)-5,6-dihydro-4H-pyrrolo[3,4-d]thiazol-2-yl)-5′-methoxy-6-methyl-[4,4′-bipyridine]-3-carboxamide] | ≥ 10 µM
18 | 0.001 to 0.1 µM | COc1cnc(Cl)cc1-c1cc(C)ncc1C(=O)Nc1nc2c(s1)CN(C(=O)c1cnc(C(F)(F)F)cc1Cl)C2 [Example 973, 2′-chloro-N-(5-(4-chloro-6-(trifluoromethyl)nicotinoyl)-5,6-dihydro-4H-pyrrolo[3,4-d]thiazol-2-yl)-5′-methoxy-6-methyl-[4,4′-bipyridine]-3-carboxamide] | ≥ 10 µM
19 | 0.001 to 0.1 µM | COc1cc(C(F)(F)F)ncc1C(=O)N1Cc2nc(NC(=O)c3cnc(C)cc3-c3cc(Cl)ncc3OC)sc2C1 [Example 974, 2′-chloro-5′-methoxy-N-(5-(4-methoxy-6-(trifluoromethyl)nicotinoyl)-5,6-dihydro-4H-pyrrolo[3,4-d]thiazol-2-yl)-6-methyl-[4,4′-bipyridine]-3-carboxamide] | ≥ 10 µM
20 | 0.001 to 0.1 µM | COc1cnc(Cl)cc1-c1cc(C)ncc1C(=O)Nc1nc2c(s1)CN(C(C)c1ccc(C(F)F)cc1F)C2 (stereo not drawn) [Example 975, 2′-chloro-N-(5-(1-(4-(difluoromethyl)-2-fluorophenyl)ethyl)-5,6-dihydro-4H-pyrrolo[3,4-d]thiazol-2-yl)-5′-methoxy-6-methyl-[4,4′-bipyridine]-3-carboxamide] | ≥ 10 µM
21 | 0.001 to 0.1 µM | COc1cnc(Cl)cc1-c1cc(C)ncc1C(=O)Nc1nc2c(s1)CN(C(=O)c1nccc(C(F)F)c1C)C2 [Example 976, 2′-chloro-N-(5-(4-(difluoromethyl)-3-methylpicolinoyl)-5,6-dihydro-4H-pyrrolo[3,4-d]thiazol-2-yl)-5′-methoxy-6-methyl-[4,4′-bipyridine]-3-carboxamide] | ≥ 10 µM
22 | 0.001 to 0.1 µM | COc1nnc(Cl)cc1-c1cc(C)ncc1C(=O)Nc1nc2c(s1)CN(C(=O)c1ccc(C#N)c(C)n1)C2 [Example 981, 4-(6-chloro-3-methoxypyridazin-4-yl)-N-(5-(5-cyano-6-methylpicolinoyl)-5,6-dihydro-4H-pyrrolo[3,4-d]thiazol-2-yl)-6-methylnicotinamide] | ≥ 10 µM
23 | 0.001 to 0.1 µM | COc1cnc(Cl)cc1-c1cc(C)ncc1C(=O)Nc1nc2c(s1)CN(C(=O)c1ccc(OC(F)F)nc1OC)C2 [Example 985, 2′-chloro-N-(5-(6-(difluoromethoxy)-2-methoxynicotinoyl)-5,6-dihydro-4H-pyrrolo[3,4-d]thiazol-2-yl)-5′-methoxy-6-methyl-[4,4′-bipyridine]-3-carboxamide] | ≥ 10 µM
24 | 0.001 to 0.1 µM | COc1cnc(Cl)cc1-c1cc(C)ncc1C(=O)Nc1nc2c(s1)CN(C(=O)c1cnc(C(F)(F)F)c(OC)n1)C2 [Example 986, 2′-chloro-5′-methoxy-N-(5-(6-methoxy-5-(trifluoromethyl)pyrazine-2-carbonyl)-5,6-dihydro-4H-pyrrolo[3,4-d]thiazol-2-yl)-6-methyl-[4,4′-bipyridine]-3-carboxamide] | ≥ 10 µM
